Test results: patent US20240360114A1 (SIRONAX LTD., priority 2021, published 2024)
pEC50: −log10 of the molar value.

System: HT-1080 cells
Assay: HT-1080 cell viability assay (ferroptosis induced by RSL3, Cell Titer-Glo)
Assay type: cell-based
Conditions: ferroptosis inducer RSL3, 20 hours, ferroptosis inhibitory activity
Procedure, shortened: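 EC50 fitted by sigmoidal dose-response regression on luminescent viability data normalized to untreated cells. Compounds ran as a 10-point, 3-fold series from 1.1 μM alongside RSL3 for 20 hours, after overnight seeding.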

[1] = Homo sapiens, HT-1080, 20 h, Table 2
[2] = Homo sapiens, HT-1080, 20 h, Table 3

pEC50 [1]	SMILES	other results
6.00 to 7.00	Cc1cc(N2CCC(C(F)(F)F)CC2)nc(F)c1NC1CCC(CN)CC1 (stereo not shown) [Compound 22, N-(4-(aminomethyl)cyclohexyl)-2-fluoro-4-methyl-6-(4-(trifluoromethyl)piperidin-1-yl)pyridin-3-amine]	–
6.00 to 7.00	CC(C)(C)c1ccc(NCc2cnc[nH]2)cc1 [Compound 130, N-((1H-imidazol-5-yl)methyl)-4-(tert-butyl)aniline]	–
–	Cc1nc(N2CCN(CC(F)(F)F)C(C)C2)ccc1NC1CC2(CC(NC(N)=O)C2)C1 (stereo not shown) [Compound 603]	pEC50 [2]: 7.00 to 10.00
6.00 to 7.00	Cc1ccc(NC2CCC(N)CC2)cc1 (stereo not shown) [Compound 128, N1-(p-tolyl)cyclohexane-1,4-diamine]	–
7.00 to 10.00	Cc1cc(NC[C@H]2CC[C@H](N)CC2)cc(C)c1C [Compound 314, N-(((1r,4r)-4-aminocyclohexyl)methyl)-3,4,5-trimethylaniline]	–
7.00 to 10.00	N[C@H]1CC[C@H](CNc2ccc(N3CC4CCC(C3)O4)c(F)c2)CC1 [Compound 472, N-(((1r,4r)-4-aminocyclohexyl)methyl)-4-(8-oxa-3-azabicyclo[3.2.1]octan-3-yl)-3-fluoroaniline]	–
7.00 to 10.00	Cc1cc(N2CC(C)CC(C)C2)ccc1NC[C@H]1CC[C@H](N)CC1 (stereo partly shown) [Compound 418]	–
6.00 to 7.00	c1cc(C2CCCCC2)ccc1NC1CCNC1 (stereo not shown) [Compound 108, N-(4-cyclohexylphenyl)pyrrolidin-3-amine]	–
5.00 to 6.00	Cc1nc(N2CC(C)OC(C)(C)C2)ccc1NC1CC2(CC(N)C2)C1 (stereo not shown) [Compound 185, N2-(2-methyl-6-(2,2,6-trimethylmorpholino)pyridin-3-yl)spiro[3.3]heptane-2,6-diamine]	–
7.00 to 10.00	CC1(C)CN(c2ccc(NC[C@H]3CC[C@H](N)CC3)cc2F)CC(C)(C)O1 [Compound 513, N-(((1r,4r)-4-aminocyclohexyl)methyl)-3-fluoro-4-(2,2,6,6-tetramethylmorpholino)aniline]	–
7.00 to 10.00	OC1CCCCC1Nc1ccc(N2CCC(C(F)(F)F)CC2)cc1 (stereo not shown) [Compound 415, 2-((4-(4-(trifluoromethyl)piperidin-1-yl)phenyl)amino)cyclohexan-1-ol]	–
7.00 to 10.00	CN(C)C(=O)C1CCC(Nc2ccc(C3CCC(C)(C)CC3)cc2)CC1 (stereo not shown) [Compound 89, 4-((4-(4,4-dimethylcyclohexyl)phenyl)amino)-N,N-dimethylcyclohexane-1-carboxamide]	–
7.00 to 10.00	CC(C)C1CCN(c2ncc(NC3CCC(C(N)=O)CC3)cn2)CC1 (stereo not shown) [Compound 404, 4-((2-(4-isopropylpiperidin-1-yl)pyrimidin-5-yl)amino)cyclohexane-1-carboxamide]	–
7.00 to 10.00	Cc1nc(N2CC3CCC(C2)O3)ccc1NC1CC2(CC(N)C2)C1 (stereo not shown) [Compound 486, N2-(6-(8-oxa-3-azabicyclo[3.2.1]octan-3-yl)-2-methylpyridin-3-yl)spiro[3.3]heptane-2,6-diamine]	–
7.00 to 10.00	NC1CCC(Nc2ccc(Oc3ccccc3)cc2)CC1 (stereo not shown) [Compound 239, N1-(4-phenoxyphenyl)cyclohexane-1,4-diamine]	–
7.00 to 10.00	Cc1cc(N2CCC(C(F)(F)F)CC2)c(C)cc1NC1CCC(N)CC1 (stereo not shown) [Compound 59, N1-(2,5-dimethyl-4-(4-(trifluoromethyl)piperidin-1-yl)phenyl)cyclohexane-1,4-diamine]	–
–	Cc1nc(N2CCN(C(=O)C(F)(F)F)C(C)C2)ccc1NC1CC2(CC(N)C2)C1 (stereo not shown) [Compound 611, 1-(4-(5-((6-aminospiro[3.3]heptan-2-yl)amino)-6-methylpyridin-2-yl)-2-methylpiperazin-1-yl)-2,2,2-trifluoroethan-1-one]	pEC50 [2]: 7.00 to 10.00
7.00 to 10.00	NC1CCC(Nc2cc(F)c(N3CCC(C(F)(F)F)CC3)c(F)c2)CC1 (stereo not shown) [Compound 54A, N1-(3,5-difluoro-4-(4-(trifluoromethyl)piperidin-1-yl)phenyl)cyclohexane-1,4-diamine]	–
7.00 to 10.00	C[C@@H](O)[C@H](N)CNC1CCC(Nc2ccc(C(C)(C)C)cc2)CC1 (stereo partly drawn) [Compound 341, (2R, 3R)-3-amino-4-((4-((4-(tert-butyl)phenyl)amino)cyclohexyl)amino) butan-2-ol]	–
–	Cc1nc(N2C[C@@H](C)O[C@@H](C)C2)ccc1NCCC[C@H]1C[C@@H](N)C1 [Compound 578, N-(3-((1s,3R)-3-aminocyclobutyl)propyl)-6-((2S,6R)-2,6-dimethylmorpholino)-2-methylpyridin-3-amine]	pEC50 [2]: 7.00 to 10.00
7.00 to 10.00	N[C@H]1CC[C@H](Nc2ccc(N3CCC(C(F)(F)F)CC3)cc2)CC1 [Compound 354, (1r,4r)-N1-(4-(4-(trifluoromethyl)piperidin-1-yl)phenyl)cyclohexane-1,4-diamine]	–

pEC50 [1]	SMILES	other results
7.00 to 10.00	Cc1nc(N2CC3CCC2CO3)ccc1NC1CC2(CC(N)C2)C1 (stereo not shown) [Compound 491, N2-(6-(2-oxa-5-azabicyclo[2.2.2]octan-5-yl)-2-methylpyridin-3-yl)spiro[3.3]heptane-2,6-diamine]	–
7.00 to 10.00	CC1(C)CCC(c2ccc(NC3CCC(NC(=O)[C@H]4CNC(=O)N4)CC3)cc2)CC1 (single isomer, unassigned) [Compound 156A]	–
6.00 to 7.00	Cc1c(N2CC(C)OC(C)C2)ccc(NC[C@H]2CC[C@H](N)CC2)c1F (stereo partly shown) [Compound 469, N-(((1r,4r)-4-aminocyclohexyl)methyl)-4-(2,6-dimethylmorpholino)-2-fluoro-3-methylaniline]	–
7.00 to 10.00	NC1CCC(Nc2ccc(C3CCC(F)(F)CC3)cc2)CC1 (stereo not shown) [Compound 251A, N1-(4-(4.4-difluorocyclohexyl)phenyl)cyclohexane-1,4-diamine]	–
7.00 to 10.00	CCN1CCC(Nc2ccc(N3CCC(C(F)(F)F)CC3)cc2)CC1 [Compound 5, 1-ethyl-N-(4-(4-(trifluoromethyl)piperidin-1-yl)phenyl)piperidin-4-amine]	–
7.00 to 10.00	C[C@H](O)[C@@H](N)C(=O)NC1CCC(Nc2ccc(C3CCC(C)(C)CC3)cc2)CC1 (stereo partly drawn) [Compound 279, (2R, 3S)-2-amino-N-(4-((4-(4,4-dimethylcyclohexyl)phenyl)amino)cyclohexyl)-3-hydroxybutanamide]	–
6.00 to 7.00	Cc1nc(N2CCC3(CCOCC3)C2)ccc1NC1CC2(CC(N)C2)C1 (stereo not shown) [Compound 507, N2-(2-methyl-6-(8-oxa-2-azaspiro[4.5]decan-2-yl)pyridin-3-yl)spiro[3.3]heptane-2,6-diamine]	–
7.00 to 10.00	Cc1cc(N2CCC(C)(C)CC2)ccc1NC[C@H]1CC[C@H](N)CC1 [Compound 382, N-(((1r,4r)-4-aminocyclohexyl)methyl)-4-(4,4-dimethylpiperidin-1-yl)-2-methylaniline]	–
5.00 to 6.00	CC(C)(C)c1ccc(NC2CCC(O)C(O)C2)cc1 (stereo not shown) [Compound 255, 4-((4-(tert-butyl)phenyl)amino)cyclohexane-1,2-diol]	–
7.00 to 10.00	CC(C)C1CCN(c2ncc(NC3CCC(CN)C3)cn2)CC1 (stereo not shown) [Compound 48, N-(3-(aminomethyl)cyclopentyl)-2-(4-isopropylpiperidin-1-yl)pyrimidin-5-amine]	–
–	CN1CCN(CC(=O)N2CCC(Nc3ccc(C(C)(C)C)cc3)CC2)CC1=O [Compound 222, 4-(2-{4-[(4-tert-butylphenyl)amino]piperidin-1-yl}-2-oxoethyl)-1-methylpiperazin-2-one]	pEC50 (Homo sapiens, Table 2): 5.00 to 6.00
7.00 to 10.00	CCOC1CCN(c2ccc(NC3CC4(CC(N)C4)C3)c(C)c2)CC1 (stereo not shown) [Compound 471, N2-(4-(4-ethoxypiperidin-1-yl)-2-methylphenyl)spiro[3.3]heptane-2,6-diamine]	–
7.00 to 10.00	Cc1nc(N2CCC(C(F)(F)F)CC2)ccc1NC1CCC(CNC(=O)C2CNC(=O)C2)CC1 (stereo not shown) [Compound 377, N-((4-((2-methyl-6-(4-(trifluoromethyl)piperidin-1-yl)pyridin-3-yl)amino)cyclohexyl)methyl)-5-oxopyrrolidine-3-carboxamide]	–
–	CC1CN(c2ccc3cc(NC4CC(N)C4)ccc3c2)CCO1 (stereo not shown) [Compound 629, N^1-(6-(2-methylmorpholino)naphthalen-2-yl)cyclobutane-1,3-diamine]	pEC50 [2]: 7.00 to 10.00
–	CC[C@@H]1CN(c2ccc(NC3CC(N)C3)c(C)n2)C[C@H](CC)O1 (stereo partly drawn) [Compound 576, N1-(6-((2S,6R)-2,6-diethylmorpholino)-2-methylpyridin-3-yl)cyclobutane-1,3-diamine]	pEC50 [2]: 7.00 to 10.00
6.00 to 7.00	CC1(C)CCN(CCNc2ccc(C(C)(C)C)cc2)CC1 [Compound 246, 4-(tert-butyl)-N-(2-(4,4-dimethylpiperidin-1-yl)ethyl)aniline]	–
7.00 to 10.00	Cc1cc(N2CC(C)OC(C)C2)c(C)cc1NC[C@H]1CC[C@H](N)CC1 (stereo partly shown) [Compound 453, N-(((1r,4r)-4-aminocyclohexyl)methyl)-4-(2,6-dimethylmorpholino)-2,5-dimethylaniline]	–
7.00 to 10.00	CC1(C)CCC(c2ccc(NC3CCC(NC(=O)C4CNCCN4)CC3)cc2)CC1 (stereo not shown) [Compound 274, N-(4-((4-(4,4-dimethylcyclohexyl)phenyl)amino)cyclohexyl) piperazine-2-carboxamide]	–
–	CC1CC(N)CCC1Nc1ccc(C(C)(C)C)cc1 (single isomer, unassigned) [Compound 252A, N1-(4-(tert-butyl)phenyl)-2-methylcyclohexane-1,4-diamine]	pEC50 (Table 2): 6.00 to 7.00
7.00 to 10.00	CC(C)C1CCN(c2ncc(NC3C[C@H]4CC(N)C[C@H]4C3)cn2)CC1 (stereo partly drawn) [Compound 362, (3aR, 6aS)-N2-(2-(4-isopropylpiperidin-1-yl)pyrimidin-5-yl) octahydropentalene-2,5-diamine]	–
7.00 to 10.00	CN1CC(C)(C)c2ccc(NC3CCC(N)CC3)cc21 (stereo not shown) [Compound 343, N1-(1,3,3-trimethylindolin-6-yl)cyclohexane-1,4-diamine]	–

SMILES	pEC50 [1]	other results
Cc1nc(N2CC3CC(C2)O3)ccc1NC1CC2(CC(N)C2)C1 (stereo not shown) [Compound 524, N2-(6-(6-oxa-3-azabicyclo[3.1.1]heptan-3-yl)-2-methylpyridin-3-yl)spiro[3.3]heptane-2,6-diamine]	6.00 to 7.00	–
